The text below walks through data of ChEMBL document CHEMBL1149337, “Design and synthesis of potent and selective 1,3,4-trisubstituted-2-oxopiperazine based melanocortin-4 receptor agonists” (Bioorg Med Chem Lett, 2006).

As a reminder, the Ki is the equilibrium dissociation constant of an inhibitor or competing ligand from its target. Broadly, the EC50 is the concentration giving half of the maximal effect. High values mean weaker potency, low ones greater potency.

The target of assay [1] is T1, Melanocyte-stimulating hormone receptor (Homo sapiens, UniProt Q01726). The experiment in a line: Binding affinity to human MC1R.
In assay [2] the target is T1, Melanocyte-stimulating hormone receptor. The experiment in a line: Agonist activity at human MC1R. The format is functional.
For assay [3], the target named is T2, Melanocortin receptor 3 (Homo sapiens, UniProt P41968). The experiment in a line: Binding affinity to human MC3R.
The target of assay [4] is T2, Melanocortin receptor 3. The experiment in a line: Agonist activity at human MC3R. The format is functional.
For assay [5], the target named is T3, Melanocortin receptor 4 (Homo sapiens, UniProt P32245). The experiment in a line: Binding affinity to human MC4R.
In assay [6] the target is T3, Melanocortin receptor 4. The experiment in a line: Agonist activity at human MC4R. It is filed as functional.
The target of assay [7] is Melanocortin receptor (M1 and M4) (Homo sapiens) (UniProt P32245+Q01726). The experiment in a line: Selectivity for human MC4R over MC1R. It is filed as protein assay.
The target of assay [8] is Melanocortin receptor (M3 and M4) (Homo sapiens) (UniProt P32245+P41968). The experiment in a line: Selectivity for human MC4R over MC3R. The format is protein assay.

Each structure is given as a SMILES string.

T3 sequence (P32245 whole entry): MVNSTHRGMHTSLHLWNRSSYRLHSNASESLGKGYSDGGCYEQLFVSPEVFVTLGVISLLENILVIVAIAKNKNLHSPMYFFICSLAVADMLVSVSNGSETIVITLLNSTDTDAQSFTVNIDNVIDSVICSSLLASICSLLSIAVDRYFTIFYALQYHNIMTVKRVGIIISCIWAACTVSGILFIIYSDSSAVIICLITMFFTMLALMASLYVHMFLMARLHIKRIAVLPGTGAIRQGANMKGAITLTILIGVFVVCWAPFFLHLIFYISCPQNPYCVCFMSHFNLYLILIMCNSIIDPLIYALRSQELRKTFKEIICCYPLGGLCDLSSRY
T1 sequence (Q01726 whole entry): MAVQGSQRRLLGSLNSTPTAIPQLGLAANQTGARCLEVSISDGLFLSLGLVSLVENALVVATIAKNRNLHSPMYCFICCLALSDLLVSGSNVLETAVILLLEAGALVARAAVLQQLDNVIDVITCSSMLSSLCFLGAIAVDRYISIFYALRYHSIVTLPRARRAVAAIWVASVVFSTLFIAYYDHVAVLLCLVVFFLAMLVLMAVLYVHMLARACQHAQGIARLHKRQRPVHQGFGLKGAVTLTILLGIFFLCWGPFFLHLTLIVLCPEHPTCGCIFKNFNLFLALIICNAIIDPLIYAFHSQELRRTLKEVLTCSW
T2 sequence (P41968 whole entry): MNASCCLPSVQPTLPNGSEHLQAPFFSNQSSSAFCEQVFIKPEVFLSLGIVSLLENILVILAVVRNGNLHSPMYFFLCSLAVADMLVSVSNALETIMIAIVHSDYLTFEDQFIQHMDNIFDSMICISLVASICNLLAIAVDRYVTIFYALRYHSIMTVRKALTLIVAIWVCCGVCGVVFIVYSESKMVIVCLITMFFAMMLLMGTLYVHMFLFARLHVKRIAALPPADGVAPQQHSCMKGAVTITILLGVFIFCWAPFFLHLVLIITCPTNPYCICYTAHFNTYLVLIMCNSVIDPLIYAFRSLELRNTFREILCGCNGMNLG

On to `CNC(=O)[C@H](Cc1ccc2ccccc2c1)N1CCN(C(=O)CCc2ccc(F)cc2)[C@@H](CCCN=C(N)N)C1=O`, for which the Ki in assay [1] was 958 nM; at Melanocortin receptor 3 [3] it was 206 nM; at Melanocortin receptor 4 [5], 5.3 nM. Also, the EC50 in assay [2] came to 1390 nM; at Melanocortin receptor 3 [4] it was 142 nM; on Melanocortin receptor 4 [6] it was 9 nM.
In the case of `CNC(=O)[C@H](Cc1ccc2ccccc2c1)NC(=O)[C@H](CCCN=C(N)N)NC(=O)[C@H](N)Cc1ccc(F)cc1`, the figures for the Ki (in assay [1]; on Melanocortin receptor 3 [3]; on Melanocortin receptor 4 [5]) were 4060 nM, 1140 nM and 225 nM, respectively. The EC50 is 21700 nM in assay [2], 20000 nM at Melanocortin receptor 3 [4] and 140 nM at Melanocortin receptor 4 [6].
With `CNC(=O)[C@H](Cc1ccc2ccccc2c1)N1CCN(C(=O)[C@@H](Cc2ccc(F)cc2)NC(=O)[C@H](Cc2ccc(O)cc2)NC(C)=O)[C@@H](CCCN=C(N)N)C1=O`, the Ki came to 14 nM in assay [1], 1.1 nM on Melanocortin receptor 3 [3] and 0.4 nM at Melanocortin receptor 4 [5]. Moreover, the 50% effective concentration (EC50) was 30 nM in assay [2], 2 nM on Melanocortin receptor 3 [4] and 8.7 nM at Melanocortin receptor 4 [6].
In the case of `CNC(=O)[C@H](Cc1ccc2ccccc2c1)N1CCN(C(=O)[C@@H](Cc2ccccc2)NC(=O)[C@H](Cc2c[nH]cn2)NC(C)=O)[C@@H](CCCN=C(N)N)C1=O`, the Ki in assay [1] was 0.4 nM; at Melanocortin receptor 3 [3], 1 nM; at Melanocortin receptor 4 [5] it was 0.8 nM. For the same compound, the EC50 is 0.07 nM in assay [2], 0.4 nM on Melanocortin receptor 3 [4] and 0.3 nM at Melanocortin receptor 4 [6].
Regarding `CNC(=O)[C@H](Cc1ccc2ccccc2c1)N1CCN(C(=O)[C@H](N)Cc2ccccc2)[C@@H](CCCN=C(N)N)C1=O`, the Ki was 659 nM in assay [1], 239 nM at Melanocortin receptor 3 [3] and 5.7 nM on Melanocortin receptor 4 [5]. In addition, the 50% effective concentration (EC50) in assay [2] was 526 nM; on Melanocortin receptor 3 [4], 41 nM; on Melanocortin receptor 4 [6], 1.7 nM. In addition, the Selectivity ratio in assay [7] is 116; in assay [8] it was 42.
Consider `CNC(=O)[C@H](Cc1ccc2ccccc2c1)N1CCN(C(=O)[C@@H](Cc2ccc(F)cc2)NC(C)=O)[C@@H](CCCN=C(N)N)C1=O`, for which the Ki turned out to be 18 nM in assay [1], 7 nM at Melanocortin receptor 3 [3] and 1.3 nM at Melanocortin receptor 4 [5]. Also, the EC50 in assay [2] was determined as 2.3 nM; on Melanocortin receptor 3 [4], 10 nM; at Melanocortin receptor 4 [6], 0.5 nM.
`CNC(=O)[C@H](Cc1ccc2ccccc2c1)N1CCN(C(=O)[C@@H](Cc2ccc(F)cc2)NC(=O)[C@H](CCC(N)=O)NC(C)=O)[C@@H](CCCN=C(N)N)C1=O`: the Ki was 2 nM in assay [1], 3.3 nM at Melanocortin receptor 3 [3] and 1.1 nM on Melanocortin receptor 4 [5]. In addition, the EC50 turned out to be 0.37 nM in assay [2], 0.5 nM on Melanocortin receptor 3 [4] and 0.34 nM at Melanocortin receptor 4 [6].
As to `CNC(=O)[C@H](Cc1ccc2ccccc2c1)N1CCN(C(=O)[C@@H](Cc2ccccc2)NC(=O)[C@H](Cc2ccc(O)cc2)NC(C)=O)[C@@H](CCCN=C(N)N)C1=O`, the Ki came out at 1 nM in assay [1], 1 nM at Melanocortin receptor 3 [3] and 0.6 nM at Melanocortin receptor 4 [5]. Also, the figures for the EC50 (in assay [2]; at Melanocortin receptor 3 [4]; at Melanocortin receptor 4 [6]) were 1.7 nM, 1 nM and 0.2 nM, respectively.
As to `CNC(=O)[C@H](Cc1ccc2ccccc2c1)N1CCN(C(=O)[C@H](N)Cc2ccc(F)cc2)[C@@H](CCCN=C(N)N)C1=O`, the Ki is 366 nM in assay [1], 75 nM on Melanocortin receptor 3 [3] and 7 nM on Melanocortin receptor 4 [5]. Further, the EC50 in assay [2] is 317 nM; at Melanocortin receptor 3 [4], 37 nM; at Melanocortin receptor 4 [6], 1.6 nM.
`CNC(=O)[C@H](Cc1ccc2ccccc2c1)N1CCN(C(=O)[C@@H](Cc2ccc(F)cc2)NC(=O)C2Cc3ccccc3CN2)[C@@H](CCCN=C(N)N)C1=O` (stereo partly specified): the values for the Ki (in assay [1]; on Melanocortin receptor 3 [3]; at Melanocortin receptor 4 [5]) were 313 nM, 352 nM and 6 nM, respectively. Also, the results for the EC50 (in assay [2]; on Melanocortin receptor 3 [4]; on Melanocortin receptor 4 [6]) were 104 nM, 163 nM and 1.6 nM, respectively.
As for `CNC(=O)[C@H](Cc1ccc2ccccc2c1)N1CCN(C(=O)[C@H](N)Cc2ccc(F)cc2)[C@@H](CCCNC(N)=O)C1=O`, the Ki was found to be 2130 nM in assay [1], 461 nM at Melanocortin receptor 3 [3] and 261 nM at Melanocortin receptor 4 [5]. For the same compound, at Melanocortin receptor 4 [6], the EC50 came to 12 nM.
Taken in the same sequence, the figures for `CNC(=O)[C@H](Cc1ccc2ccccc2c1)N1CCN(C(=O)[C@H](N)Cc2ccc(F)cc2)[C@@H](CCNC(N)=O)C1=O` were 21700 nM, 6110 nM, 365 nM and 18 nM.
With `CNC(=O)[C@H](Cc1ccc2ccccc2c1)N1CCN(C(=O)[C@@H](Cc2ccc(F)cc2)NC(=O)[C@H](Cc2cnc[nH]2)NC(C)=O)[C@@H](CCCN=C(N)N)C1=O`, the results for the Ki (in assay [1]; on Melanocortin receptor 3 [3]; on Melanocortin receptor 4 [5]) were 2 nM, 35 nM and 5 nM, respectively. In addition, the values for the EC50 (in assay [2]; at Melanocortin receptor 3 [4]; at Melanocortin receptor 4 [6]) were 1.7 nM, 6 nM and 2 nM, respectively.
